Columns and labels:
IFN-γ = IFN-γ from ConA-activated lymphocytes of normal healthy people given EC-18 for four weeks (ELISA); type: in vivo, human
Protocol: (§1) EC-18 was administered to the normal healthy people (36 people) four weeks. EC-18 Lymphocytes separated from the blood before administration and after administration were incubated with ConA (concanavalin A). In order to measure the cytokine (IFN-γ and IL-4) which is separated from the lymphocyte (T cell) activated by Con A, culture medium was incubated for 42 hours, and were stored frozen. Purified antibody (capture antibody) of cytokine to be measured was dispensed to well (Nunc-immuno module, polysorp) by 0.2 μg/well, and left overnight at 4° C. to coat antigen. After well washing, blocking buffer (1% bovine serum albumin) treatment was performed for about 1 hour to inhibit the nonspecific binding. After washing the well, a cell culture solution was placed into each well and the antibody was combined with coating antigen for 2 hours. […] After approximately 10-30 minutes, stop solution was added into the well and absorbance at 450-570 nm was measured with Automatic Microplate reader (Molecular Devices, CA, USA). In the same manner, absorbance according to cytokine solution concentration was measured to plot standard curve, and the amount of cytokine contained in the sample was calculated by substituting the absorbance of the sample group. The change amount of cytokine calculated in this manner and significance (P<0.05) were shown in flowing Table 1 and FIGS. 5-6.

IL-4 [1] = test: IL-4 level in serum (ELISA) of mice with DNCB-induced atopic dermatitis after oral EC-18; type: in vivo, mouse
Protocol: (§2) DNCB (1-Chloro-2,4-dinitrobenzene, Sigma Aldrich) was diluted to 0.2% by the solvent in which olive oil and acetone were mixed in a ratio of 1:4. Diluted DNCB was applied onto back of each 7-week-old Balb/c mouse whose hairs on back were removed. During the first week application was made seven times continuously, and from the second week, application was made every two days to induce atopy.
A mixture of EC-18 and olive oil was orally administrated to the mouse 7 times during the first week by 100 μl each time in dose of 2 mq/rat, and after then, for 11 times, was administered orally by 100 μl each time in dose of 1 mg/rat, that is the mixture was orally administrated totally 18 times. For the measurement of IL-4, blood was collected from veins under the eyes of mice treated, through ocular blood (Eye bleeding) method. […] After collecting the blood of about 350 μl in the EP tube, the blood was centrifuged to separate only serum and IL-4 present in the serum was analyzed by ELISA (enzyme-linked immunosorbent assay) method. […] When the color development is completed, the stop solution (2N H2SO4+DW) was dispensed by 100 μl, and the amount of color development at 450 nm wavelength was measured at ELISA Reader. […]

[2] = system: DNCB-induced atopic dermatitis in Balb/c mouse; test: Visual inspection of the degree of atopic disease in the DNCB-induced mouse model; type: in vivo; conditions: score 0 to 12
Protocol: as §2
Atopic disease models commonly used in the laboratory is a technique that induces contact Hypersensitivity (CHS) by sensitization to DNCB (1-Chloro-2,4-dinitro-benzene). This technique is a technique of inducing atopic by diluting DNCB with a solvent in which acetone and olive oil are mixed in a ratio of 4:1 to be 0.2%, and then smearing the diluted on the skin, and is for the experiment for adjusting and maintaining the expression time so that artificially severe atopy-like appearance appears could be observed two weeks after the smearing. The degree of atopic disease was evaluated by dividing the state of erythema/emorrhage, scarring/dryness, edema), excoriation/erosion which are induced on the skin, respectively into three steps (0=null, 1=mild, 2=moderate, 3=severe) and then assigning the score up to 12 from zero. It was induced in the experimental group and the control group that the time when severe atopic status ((visual inspection index of 10) is reached was two weeks after the smearing of DNCB. Further, in order to maintain this condition, after two weeks, DNCB smearing was performed every two days.
FIG. 4 is a photograph showing the degree of atopic disease for 3 weeks in mice of the EC-18 administration group (test group) and the mice of olive oil administration group (control group). […] In contrast, in the test group the administration of EC-18, visual inspection index was changed to 1 point after one week, 8 points after two weeks and 3 points after three weeks.

IL-4 [3] = test: IL-4 from ConA-activated lymphocytes of normal healthy people given EC-18 for four weeks (ELISA); type: in vivo, human
Protocol: as §1

[4] = GLP toxicity test; stated as known; cited from earlier work
sepsis animal model = conditions: cecal-ligation-puncture sepsis model; stated as known; cited from earlier work
[5] = system: atopic symptoms in patients; test: Observation of atopic symptom alleviation in patients with atopic; type: in vivo, human; conditions: 500 mg/day; 2 weeks (severe symptoms) or 2 days (mild skin rash); FIGS. 7 and 8
Protocol: To patients with severe atopic symptoms, the EC-18 was administrated every day at a dose of 500 mg/day for 2 weeks and atopic symptoms change which was taken were shown in FIG. 7. To a patient having a mild skin rash, the EC-18 was administrated every day at a dose of 500 mg/day for 2 days and atopic symptoms change which was taken were shown in FIG. 8.

IgE = IgE level in serum (ELISA) of mice with DNCB-induced atopic dermatitis after oral EC-18; type: in vivo, mouse
Protocol: as §2
Using the serum separated from the mouse blood, was measured the expression levels of IgE in the ELISA method as shown in Experimental Example 1. In IgE ELISA for the mouse, IgE capture antibody (BD bioscience) was diluted with 1×PBS to 2 μg/ml, dispensed to each of 96-well plate (Thermo) by 200 μl, coated for 12 hours, washed using a wash buffer in which 0.05% tween 20 was diluted in 1×PBS. After washing three times, 1% BSA was dispensed to each well by 200 μl and blocking buffer was placed for 1 hour at room temperature (RT) conditions, and then final washing was performed._Thereafter, the serum obtained from the mice was dispensed to each well by 100 μl, and the wells were placed for reaction at room temperature for 1 hours after dispensing, and unreacted IgE is washed under the same conditions. […] When the color development is completed, the stop solution (2N H2SO4+DW) was dispensed by 50 μl, and the amount of color development at 450 nm wavelength was measured. […]

[6] = DNCB-induced atopic dermatitis model animals

With `CCCCC/C=C\C/C=C\CCCCCCCC(=O)OC(COC(C)=O)COC(=O)CCCCCCCCCCCCCCC` (centres unmarked) [EC-18, 1-palmitoyl-2-linoleoyl-3-acetylglycerol] the “IFN-γ after EC-18 administration” value (IFN-γ; N = 36, four weeks of administration, before administration 686.4 ± 162.2, P 0.473) was 611.9 ± 209.7 pg/mL, the “expression level of Th1 cytokine (IFN-γ), in words” value (IFN-γ; normal subjects, 4 weeks, FIG. 6) was “the change did not occur uniformly” and the “IL-4 level compared to the untreated group (olive oil treatment group), in words” value (IL-4 [1]; [6]) was “significantly decreased”. The “reduction of IL-4 level” value (IL-4 [1]; serum, two weeks vs one week after administration, oral EC-18 in olive oil, olive oil control approximately 50%) was 80%, the visual inspection index ([2]; after one week, olive oil control 3 points) was 1 point and the visual inspection index ([2]; after three weeks, olive oil control 6 points) was 3 points. For the same compound, the visual inspection index ([2]; after two weeks, olive oil control 10 points) was 8 points, the “IL-4 after EC-18 administration” value (IL-4 [3]; N = 36, four weeks of administration, before administration 246.6 ± 186.9, P <0.001) was 96.1 ± 64.2 pg/mL and the “expression level of Th2 cytokine (IL-4), in words” value (IL-4 [3]; normal subjects, 4 weeks, FIG. 5) was “reduced the expression levels of Th2 cytokine (IL-4)”. The toxicity [4] was “no-toxicity”, the “survivability ratio of animals” value (sepsis animal model) was “increases survivability ratio of animals” and the atopic symptoms change [5] was “the atopic symptoms are relaxed”. The “IgE level compared to the untreated group (olive oil treatment group), in words” value (IgE; [6]) was “significantly decreased” and the “reduction of IgE level” value (IgE; serum, two weeks vs one week after administration, oral EC-18, olive oil control approximately 22%) was “about 50%”.

Source: patent publication US9763908B2, “Composition containing monoacetyldiglyceride compound as active ingredient for preventing or treating atopic dermatitis” (ENZYCHEM LIFESCIENCES CORPORATION, priority 2013, dated 2017)
